Measurements: patent US20230416330A1, “Optimized GIP Peptide Analogues” (Antag Therapeutics ApS, priority 2019, published 2023)
Where two headings read alike, the source gives them in different places. Starred links: 1 amine or outer side, 2 acyl side, 3 side chain; linkers in the order of their positions; H or OH if unused. Non-standard residues stand in square brackets, D forms with d. Residues, ends and D or L forms follow the SMILES beside them. Groups on a side chain read outwards from the residue. *: point of attachment. C18 diacid = O=C(O)CCCCCCCCCCCCCCCCC(=O)*; C16 diacid = O=C(O)CCCCCCCCCCCCCCC(=O)*; γGlu = O=C(O)[C@H](CCC(=O)[*:2])N[*:1]; Glutaryl = O=C(CCCC(=O)[*:2])[*:1]; Nle = CCCC[C@H](N)C(=O)O; AEEA = NCCOCCOCC(=O)O; Aib = CC(C)(N)C(=O)O

How the values were obtained:
[1] = biological target: T1, human GIP receptor (Homo sapiens, UniProt P48546); experiment: cAMP assay Alternative 1 (CisBio assay), GIPR antagonism; assay type: cell-based; conditions: for cAMP antagonism % inhib: % inhibition of Emax
T1 construct: host or cells: HEK-293 cells, transient transfection (Lipofectamine 2000), cDNA in pCMV-Script vector
T1 sequence (P48546 22-466): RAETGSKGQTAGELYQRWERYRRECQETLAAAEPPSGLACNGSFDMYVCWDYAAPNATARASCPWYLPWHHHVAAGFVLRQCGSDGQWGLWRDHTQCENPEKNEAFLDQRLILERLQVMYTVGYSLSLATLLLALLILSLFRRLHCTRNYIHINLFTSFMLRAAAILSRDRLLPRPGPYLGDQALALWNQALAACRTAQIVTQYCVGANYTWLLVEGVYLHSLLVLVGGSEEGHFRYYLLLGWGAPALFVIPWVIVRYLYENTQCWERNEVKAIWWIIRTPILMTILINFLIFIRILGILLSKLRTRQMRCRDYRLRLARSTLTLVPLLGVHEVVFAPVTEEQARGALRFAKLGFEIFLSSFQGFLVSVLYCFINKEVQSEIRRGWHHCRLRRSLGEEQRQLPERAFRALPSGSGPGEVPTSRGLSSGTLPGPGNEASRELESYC
In short: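 HEK293 cells transiently transfected with hGIPR, compounds diluted in HBSS/HEPES/pluronic/casein with 500 uM IBMX; decrease in intracellular cAMP read by HTRF (665/620 nm) and converted via cAMP standard curve. pIC50 from four-parameter fit; agonism tested separately after 30 min at 37° C.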

[2] = Physical stability: fibril formation in Thioflavin T (ThT) assay with agitation; assay type: physicochemical; conditions: 25° C., agitation
In short: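 Peptides at 1, 5, 7.5 or 15 mg/ml in 50 mM sodium phosphate pH 7.4 or in water adjusted to pH 7.4 with NaOH, filtered 0.22 μm, with ThT added. Wells held a 3 mm silica bead under 300 rpm orbital agitation at 25° C. Emission at 486 nm tracked continuously; lag time = 10% of transition above baseline.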

[3] = Solubility by visual inspection of peptide solutions; assay type: physicochemical
In short: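 Peptides dissolved at 1, 5, 7.5 or 15 mg/ml in 50 mM sodium phosphate pH 7.4 or water adjusted to pH 7.4 with NaOH, with gentle mixing. Immediate solubility judged visually as a clear, colorless solution.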

SMILES: CC[C@H](C)[C@H](NC(=O)[C@H](CO)NC(=O)[C@H](Cc1ccc(O)cc1)NC(=O)[C@H](CC(=O)O)NC(=O)[C@H](CO)NC(=O)[C@@H](NC(=O)[C@H](Cc1ccccc1)NC(=O)[C@@H](NC(=O)CNC(=O)[C@@H](N)CCC(=O)O)[C@@H](C)O)[C@@H](C)CC)C(=O)N[C@@H](C)C(=O)N[C@@H](CC(C)C)C(=O)N[C@@H](CC(=O)O)C(=O)N[C@@H](CCCCN)C(=O)N[C@H](C(=O)N[C@@H](CCCCNC(=O)CCCCCCCCCCCCCCC(=O)O)C(=O)N[C@@H](CCC(N)=O)C(=O)N[C@@H](CCC(N)=O)C(=O)N[C@@H](CC(=O)O)C(=O)N[C@@H](Cc1ccccc1)C(=O)N[C@H](C(=O)N[C@@H](CCC(=O)O)C(=O)N[C@@H](Cc1c[nH]c2ccccc12)C(=O)N[C@@H](CC(C)C)C(=O)N[C@@H](CC(C)C)C(=O)N[C@@H](C)C(=O)N[C@@H](CCC(N)=O)C(=O)N[C@@H](CCCCN)C(=O)N1CCC[C@H]1C(=O)N[C@@H](CO)C(=O)N[C@@H](CO)C(=O)NCC(=O)N[C@@H](C)C(=O)N1CCC[C@H]1C(=O)N1CCC[C@H]1C(=O)N1CCC[C@H]1C(=O)N[C@@H](CO)C(=O)O)C(C)C)[C@@H](C)CC [AT668] (H-EGTFISDYSIALDKIK(C16 diacid)QQDFVEWLLAQKPSSGAPPPS-OH; N-terminus assumed)
- cAMP antagonism % inhib ([1]; Table 2B): 92%
- Avr lag time (h) ([2]; 1 mg/ml, TFA, Phosphate (7.4)): fnd (Fnd = fibrils not detected within experiment time (96 hours) with agitation.)
- Visual appearance ([3]; 1 mg/ml, TFA, Phosphate (7.4)): Clear

SMILES: CC[C@H](C)[C@H](NC(=O)[C@H](CCCCN)NC(=O)[C@H](CCC(=O)O)NC(=O)[C@H](CC(C)C)NC(=O)C(C)(C)NC(=O)[C@@H](NC(=O)[C@H](CO)NC(=O)[C@H](Cc1ccc(O)cc1)NC(=O)[C@H](CCC(=O)O)NC(=O)[C@H](CO)NC(=O)[C@@H](NC(=O)[C@H](Cc1ccccc1)NC(=O)[C@@H](NC(=O)CNC(=O)[C@@H](N)CCC(=O)O)[C@@H](C)O)[C@@H](C)CC)[C@@H](C)CC)C(=O)N[C@@H](CCCCNC(=O)CCCCCCCCCCCCCCC(=O)O)C(=O)N[C@@H](CCC(N)=O)C(=O)N[C@@H](CCC(N)=O)C(=O)N[C@@H](CCC(=O)O)C(=O)N[C@@H](Cc1ccccc1)C(=O)N[C@H](C(=O)N[C@@H](CCC(=O)O)C(=O)N[C@@H](Cc1c[nH]c2ccccc12)C(=O)N[C@@H](CC(C)C)C(=O)N[C@@H](CC(C)C)C(=O)N[C@@H](C)C(=O)N[C@@H](CCC(N)=O)C(=O)N[C@@H](CCCCN)C(=O)N1CCC[C@H]1C(=O)N[C@@H](CO)C(=O)N[C@@H](CO)C(=O)NCC(=O)N[C@@H](C)C(=O)N1CCC[C@H]1C(=O)N1CCC[C@H]1C(=O)N1CCC[C@H]1C(=O)N[C@@H](CO)C(=O)O)C(C)C [AT673] (H-EGTFISEYSI[Aib]LEKIK(C16 diacid)QQEFVEWLLAQKPSSGAPPPS-OH; N-terminus assumed)
- cAMP antagonism % inhib ([1]; Table 2B): 94%
- Avr lag time (h) ([2]; 1 mg/ml, TFA, Phosphate (7.4)): fnd (Fnd = fibrils not detected within experiment time (96 hours) with agitation.)
- Avr lag time (h) ([2]; 5 mg/ml, Na, MilliQ (8)): fnd (Fnd = fibrils not detected within experiment time (96 hours) with agitation.)
- Avr lag time (h) ([2]; 7.5 mg/ml, Na, MilliQ (8)): fnd (Fnd = fibrils not detected within experiment time (96 hours) with agitation.)
- Avr lag time (h) ([2]; 15 mg/ml, Na, MilliQ (8)): fnd (Fnd = fibrils not detected within experiment time (96 hours) with agitation.)
- Visual appearance ([3]; 1 mg/ml, TFA, Phosphate (7.4)): Clear
- Visual appearance ([3]; 5 mg/ml, Na, MilliQ (8)): Clear
- Visual appearance ([3]; 7.5 mg/ml, Na, MilliQ (8)): Clear
- Visual appearance ([3]; 15 mg/ml, Na, MilliQ (8)): Clear

SMILES: CCCC[C@H](NC(=O)C(C)(C)NC(=O)[C@@H](NC(=O)[C@H](CO)NC(=O)[C@H](Cc1ccc(O)cc1)NC(=O)[C@H](CCC(=O)O)NC(=O)[C@H](CO)NC(=O)[C@@H](NC(=O)[C@H](Cc1ccccc1)NC(=O)[C@@H](NC(=O)CNC(=O)[C@@H](N)CCC(=O)O)[C@@H](C)O)[C@@H](C)CC)[C@@H](C)CC)C(=O)N[C@@H](CCC(=O)O)C(=O)N[C@@H](CCCCN)C(=O)N[C@H](C(=O)N[C@@H](CCCCNC(=O)CCCCCCCCCCCCCCC(=O)O)C(=O)N[C@@H](CCC(N)=O)C(=O)N[C@@H](CCC(N)=O)C(=O)N[C@@H](CCC(=O)O)C(=O)N[C@@H](Cc1ccccc1)C(=O)N[C@H](C(=O)N[C@@H](CCC(=O)O)C(=O)N[C@@H](Cc1c[nH]c2ccccc12)C(=O)N[C@@H](CC(C)C)C(=O)N[C@@H](CC(C)C)C(=O)N[C@@H](C)C(=O)N[C@@H](CCC(N)=O)C(=O)N[C@@H](CCCCN)C(=O)N1CCC[C@H]1C(=O)N[C@@H](CO)C(=O)N[C@@H](CO)C(=O)NCC(=O)N[C@@H](C)C(=O)N1CCC[C@H]1C(=O)N1CCC[C@H]1C(=O)N1CCC[C@H]1C(=O)N[C@@H](CO)C(=O)O)C(C)C)[C@@H](C)CC [AT674] (H-EGTFISEYSI[Aib][Nle]EKIK(C16 diacid)QQEFVEWLLAQKPSSGAPPPS-OH; N-terminus assumed)
- cAMP antagonism % inhib ([1]; Table 2B): 93%
- IC50 ([1]; Table 2B, HEK-293 cells transiently expressing hGIPR, agonist GIP1-42 at EC50, read-out: cAMP antagonism): 0.447 nM
- Avr lag time (h) ([2]; 1 mg/ml, TFA, Phosphate (7.4)): fnd (Fnd = fibrils not detected within experiment time (96 hours) with agitation.)
- Visual appearance ([3]; 1 mg/ml, TFA, Phosphate (7.4)): Clear

SMILES: CC[C@H](C)[C@H](NC(=O)[C@H](CO)NC(=O)[C@H](Cc1ccc(O)cc1)NC(=O)[C@H](CC(=O)O)NC(=O)[C@H](CO)NC(=O)[C@@H](NC(=O)[C@H](Cc1ccccc1)NC(=O)[C@@H](NC(=O)CNC(=O)CCCC(=O)O)[C@@H](C)O)[C@@H](C)CC)C(=O)N[C@@H](C)C(=O)N[C@@H](CCSC)C(=O)N[C@@H](CC(=O)O)C(=O)N[C@@H](CCCCN)C(=O)N[C@H](C(=O)N[C@@H](CCCCNC(=O)CCCCCCCCCCCCCCC(=O)O)C(=O)N[C@@H](CCC(N)=O)C(=O)N[C@@H](CCC(N)=O)C(=O)N[C@@H](CC(=O)O)C(=O)N[C@@H](Cc1ccccc1)C(=O)N[C@H](C(=O)N[C@@H](CC(N)=O)C(=O)N[C@@H](Cc1c[nH]c2ccccc12)C(=O)N[C@@H](CC(C)C)C(=O)N[C@@H](CC(C)C)C(=O)N[C@@H](C)C(=O)N[C@@H](CCC(N)=O)C(=O)N[C@@H](CCCCN)C(=O)N1CCC[C@H]1C(=O)N[C@@H](CO)C(=O)N[C@@H](CO)C(=O)NCC(=O)N[C@@H](C)C(=O)N1CCC[C@H]1C(=O)N1CCC[C@H]1C(=O)N1CCC[C@H]1C(=O)N[C@@H](CO)C(=O)O)C(C)C)[C@@H](C)CC [AT677] (Glutaryl-GTFISDYSIAMDKIK(C16 diacid)QQDFVNWLLAQKPSSGAPPPS-OH)
- IC50 [1]: 0.447 nM
- cAMP antagonism % inhib ([1]; Table 2B): 93%
- Avr lag time ([2]; 1 mg/ml, Na, MilliQ (8)): <24 h
- Avr lag time ([2]; 1 mg/ml, TFA, Phosphate (7.4)): 16.5 ± 2.3 h
- Visual appearance ([3]; 1 mg/ml, TFA, Phosphate (7.4)): Clear

SMILES: CC[C@H](C)[C@H](NC(=O)[C@H](CCCCN)NC(=O)[C@H](CC(=O)O)NC(=O)[C@H](CC(C)C)NC(=O)C(C)(C)NC(=O)[C@@H](NC(=O)[C@H](CO)NC(=O)[C@H](Cc1ccc(O)cc1)NC(=O)[C@H](CC(=O)O)NC(=O)[C@H](CO)NC(=O)[C@@H](NC(=O)[C@H](Cc1ccccc1)NC(=O)[C@@H](NC(=O)CNC(=O)[C@@H](N)CCC(=O)O)[C@@H](C)O)[C@@H](C)CC)[C@@H](C)CC)C(=O)N[C@@H](CCCCNC(=O)COCCOCCNC(=O)COCCOCCNC(=O)CC[C@H](NC(=O)CCCCCCCCCCCCCCCCC(=O)O)C(=O)O)C(=O)N[C@@H](CCC(N)=O)C(=O)N[C@@H](CCC(N)=O)C(=O)N[C@@H](CC(=O)O)C(=O)N[C@@H](Cc1ccccc1)C(=O)N[C@H](C(=O)N[C@@H](CCC(=O)O)C(=O)N[C@@H](Cc1c[nH]c2ccccc12)C(=O)N[C@@H](CC(C)C)C(=O)N[C@@H](CC(C)C)C(=O)N[C@@H](C)C(=O)N[C@@H](CCC(N)=O)C(=O)N[C@@H](CCCCN)C(=O)N1CCC[C@H]1C(=O)N[C@@H](CO)C(=O)N[C@@H](CO)C(=O)NCC(=O)N[C@@H](C)C(=O)N1CCC[C@H]1C(=O)N1CCC[C@H]1C(=O)N1CCC[C@H]1C(=O)N[C@@H](CO)C(=O)O)C(C)C [AT685] (H-EGTFISDYSI[Aib]LDKIK([AEEA-AEEA-γGlu-C18 diacid])QQDFVEWLLAQKPSSGAPPPS-OH; N-terminus assumed)
- cAMP antagonism % inhib ([1]; Table 2B): 83%
- Avr lag time (h) ([2]; 1 mg/ml, TFA, Phosphate (7.4)): fnd (Fnd = fibrils not detected within experiment time (96 hours) with agitation.)
- Visual appearance ([3]; 1 mg/ml, TFA, Phosphate (7.4)): Clear
